Data from patent publication US20150335678A1, “METHOD OF ACTIVATING STEM CELLS IN AN ANIMAL AND THE USE OF CHLORINE DIOXIDE FOR PREPARING MEDICINES FOR ACTIVATING STEM CELLS IN AN ANIMAL” (priority 2012, published 2015).

How the values were obtained:
Ankylosing spondylitis = Ankylosing spondylitis patients: BASRI, Harris hip score, BASDAI, BASFI, ESR, CRP (Example 6); settings: for BASDAI: before treatment 6.4 ± 1.8; for BASFI: before treatment 7.3 ± 1.6; for CRP: before treatment 17.6 ± 4.2; for ESR: before treatment 29.4 ± 9.8; for BASRI Staging: before treatment 45 ± 5; for Harris hip score: before treatment 82 ± 6
Protocol: The first solution was a mixed solution made of sodium chlorite with the concentration of 7.47% and sodium chloride with the concentration of 1.59% with deionized water; the second solution was made of citric acid with the concentration of 16.7% with deionized water. Same volume of solutions were taken out from different vessels with different volume and put into the suitable glass or plastic cups prepared. Allow the solution to mix for 3-5 minutes and then filter the solution with 0.22 μm filter membrane of double-deck, dimethyl sulfoxide was added in the ratio of 1:1. The solution was smeared over the region immediately and repeatedly, once a day for consecutive three weeks. The administration was stopped for a week, and then began the treatment for consecutive three weeks, stop the drug for a week. The medicine was repeated for four cycles. Clean and disinfect the area before administration and conduct local anesthetic 30 minutes before operation. To use corresponding amount of solution according to different regions, varying from 1-10 ml/100 cm^2.
The subjects consisted of 8 male and 4 female AS patients aged from 18 to 40 years old (average age: 26 years old).
Mean index: the index of X ray of the hip joints:
Stage I: suspicious change, local joint space may become narrower, 25 points;
Stage II: mildly abnormal, joint space becomes narrower obviously, the space>2 mm, 50 points;
Stage III: moderately abnormal, joint space becomes narrow, and the space <2 mm or the local joint space disappears, articular surfaces <2 mm, 75 points;
Stage IV: severe abnormal, bone deformation, articular surfaces >2 cm, 100 points.
If two of the three symptoms, namely, erosion and damage, syndesmophyte formation, arthrokatadysis appear during stage I and II, it should increase a level accordingly. BASRI evaluation was given according to different levels. Harris score: full score is 100 points, including pain degree of hip joints (44 points), function of hip joints (47 points), degree of lower limb malformation (4 points), range of activity of hip joints (5 points). Corresponding scores were given according to degrees. BASFI, BASDAI, ESR, CRP were applied in evaluating disease activity and function.

wound = settings: clinical trial report No. NCT01341041, Rhode Island Hospital; cited from earlier work
Helicobacter pylori = test: hp-positive gastric ulcer patients: HP negative conversing, rapid urease test; format: in vivo, human; settings: 30 patients per group
Protocol: The subjects consisted of 90 gastric ulcer patients (50 male and 40 female) of hp-positive aged from 33 to 75 years old (average age: 41 years old). The subjects were randomly assigned to treatment group and control group with 30 patients in treatment group and 30 in control group 1 and 30 in control group 2 respectively.
Allow the solution to mix for 3-5 minutes. The capsule that containing activating agent of stem cells was made by injecting the mixed solution into the soft capsule of number 0.
The capsule that containing activating agent of stem cells was administered to the patients in treatment group three times a day and a pill each time; 30 minutes before meals, patients in control group 1 took orally 15 mg colloidal bismuth and 100 mg pectin tinidazole for three times a day. And 20 mg Omeprazole two times a day; patients in control group 2 took orally […] amoxicillin and 500 mg clindamycin three times a day and 20 mg esomeprazole twice a day before meals. Both groups were administered for a consecutive week. To observe the improvement of the clinical symptoms of the three cases two weeks after administration, such as stomachache, nausea and sour regurgitation. […]
Criteria for measuring the effects: the changes of conditions before and after treatment and the time the symptoms disappear were recorded precisely. […]

[1] = 12 AS patients, topical with DMSO
[2] = the sixth month, 12 AS patients, topical with DMSO
[3] = the third month, 12 AS patients, topical with DMSO

[O][Cl+][O-] [chlorine dioxide solution, chlorine dioxide]
time until pain and itch during administration disappear completely (Ankylosing spondylitis; [1]): after an hour | tolerance (Ankylosing spondylitis; [1]): without local or systemic anaphylactic reaction | change of BASRI staging of the involved hip joints vs before administration (Ankylosing spondylitis; six months after administration): reduced a level | BASDAI (Ankylosing spondylitis; [2]): 3.0 ± 1.2 | BASFI (Ankylosing spondylitis; [2]): 2.9 ± 1.1 | CRP (Ankylosing spondylitis; [2]): 1.2 ± 0.6 | ESR (Ankylosing spondylitis; [2]): 9.1 ± 6.8 | BASRI Staging (Ankylosing spondylitis; [2]): 25 ± 8 | Harris hip score (Ankylosing spondylitis; [2]): 32 ± 4 | BASDAI (Ankylosing spondylitis; [3]): 3.6 ± 1.5 | BASFI (Ankylosing spondylitis; [3]): 3.3 ± 1.4 | CRP (Ankylosing spondylitis; [3]): 6.3 ± 3.5 | ESR (Ankylosing spondylitis; [3]): 11.8 ± 7.6 | BASRI Staging (Ankylosing spondylitis; the third month, 12 AS patients, NaClO2 7.47% + citric acid 16.7% 1:1, DMSO 1:1, smeared once a day, three weeks on/one week off, four cycles): 30 ± 6 | Harris hip score (Ankylosing spondylitis; [3]): 49 ± 5 | change of BASRI staging of the involved hip joints vs before administration (Ankylosing spondylitis; three months after administration): reduced half level | effects compared with normal saline in wound irrigation (wound): promote healing and reduce scar formation | HP negative conversing (%) (Helicobacter pylori; rapid urease test after 30 days): 96.6% | HP negative conversing (No.) (Helicobacter pylori; rapid urease test of gastric mucosa after 30 days): 29
